# Test results reported in paper PMC4830539, “Chemical Inhibition of Histone Deacetylases 1 and 2 Induces Fetal Hemoglobin through Activation of GATA2” (PLoS ONE, 2016).
# Test system: HBG mRNA
# Assay: HBG induction in GATA2 knockdown BM cells
# Assay type: cell-based, human
# Settings: 1 μM, 4 days, CS1 expansion media
# Description: shRNA experiments were conducted using the RNAi consortium (TRC) TRC1.5 vector, also known as pLKO.1-puro (Sigma). Five vectors containing shRNA targeting GATA2 were screened in expanded BM cells and the two hairpins yielding the greatest knockdown of GATA2 mRNA were selected for further use: shG2-1, TRCN0000019264 and shG2-2, TRCN0000019265. […] Lentiviral supernatants were produced in the 293T cell line using shRNA vectors, viral packaging mix (Sigma, SHP001), and TransIT-293 transfection reagent (Mirus Bio, Madison, WI). BM cells were grown for 3 days in CS1 expansion media, and then transduced using lentiviral supernatant’s supplemented with 5 μg/mL of polybrene under room temperature centrifugation at 1200 x g for 75 minutes. Transduced cells were grown for two days to allow for expression of construct, followed by selection for two days in 1 μg/mL of puromycin. The GATA2 overexpression vector (oeG2) was constructed by removing the GFP cassette of the pLKO.1-puro-CMV-TurboGFP vector (Sigma, SHC003) at the 5' NheI and 3' PstI cloning sites and replacing it with the full-length GATA2 transcript sequence (Refseq NM_001145661) (GenScript, Piscataway, NJ). pLKO.1-puro-CMV-TurboGFP vector was used as a control (oeGFP). BM cells were grown for 3 days in CS1 expansion media, and then transduced using the RetroNectin-bound virus method according to manufacturer’s protocol. […]
compound,measurement,value
Nc1ccc(-c2cccs2)cc1NC(=O)c1ccc2nc(N3CCNCC3)ccc2c1 [ACY-957],reduction of the magnitude of HBG mRNA induction in shG2-1 and shG2-2 cells relative to shCtrl cells,25%
